Measured values published in patent US8287862B2, “Multidrug resistance-associated polypeptide” (Millennium Pharmaceuticals, Inc., priority 1997, dated 2012).

Columns and labels:
[1] = tested on: MCF-7 human breast adenocarcinoma cell line; conditions: adriamycin-selected MDR MCF-7 vs parental MCF-7; cited from earlier work
[2] = tested on: MRP-β host cells; conditions: versus source or control cells; 16-24 hours in culture
Description: To establish this survival advantage, triplicate cultures of MRP-β host cells, control cells and source cells (e.g., MCF-7 human breast adenocarcinoma cells) are generated in 24-well cell culture plates. Once the cultures have attained at least 80% confluency, lethal or sub-lethal amounts of a cytotoxin (e.g., adriamycin, bisantrene) are added to each well. After a sufficient period of time for cytotoxic effects to be manifested (e.g., 16-24 hours in culture), culture media comprising the cytotoxic drug are aspirated or otherwise removed, and cells are stained with a vital dye such as Trypan blue. Which commercially available vital dye is used in this procedure is a matter of choice; thus, sulforodoamine B (see Powell et al. (1990), U.S. Pat. No. 5,550,149) could be used in lieu of Trypan blue. The number of cells that remain viable (e.g., capable of excluding the dye) are counted using a hemocytometer, flow cytometer or other appropriate device.

| Structure (SMILES) | resistance of MDR derivative cell line relative to parental (wild-type) MCF-7 [1] [fold] | survival of MRP-β expressing host cells on exposure to cytotoxin [2] |
| --- | --- | --- |
| COc1cccc2c1C(=O)c1c(O)c3c(c(O)c1C2=O)C[C@@](O)(C(=O)CO)C[C@@H]3O[C@H]1C[C@H](N)[C@H](O)[C@H](C)O1 [adriamycin] | 192 | – |
| C(=N\NC1=NCCN1)/c1c2ccccc2c(/C=N/NC2=NCCN2)c2ccccc12 [bisantrene] | – | surviving exposure to otherwise lethal amounts |
